Source: patent US10780090B2, “Heteroaryl compounds useful as inhibitors of SUMO activating enzyme” (Millennium Pharmaceuticals, Inc., priority 2014, dated 2020)

Molecular target: recombinant human SAE enzyme (Homo sapiens (Human), UniProt Q9UBT2)
Experiment: SAE HTRF enzyme assay
Format: biochemical
Conditions: for inhibition at 0.111 µM: read-out: Percent Inhibition
How it was run: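 Human SAE (0.11 nM) with 0.5 μM ATP, 0.125 μM Sumo-Flag and 0.01 μM Ubc9-GST in HEPES pH 7.5, 5 mM MgCl2, 250 μM GSH; 105 min at 24 °C. Stopped with EDTA; HTRF read after 2 h with Eu-anti-Flag and APC-anti-GST. Percent inhibition or IC50 reported.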

[1] = SAE inhibition at compound concentration 0.111 μM
[2] = SAE inhibition, class symbols, legend in nM

recombinant human SAE enzyme, sequence (Q9UBT2 whole entry): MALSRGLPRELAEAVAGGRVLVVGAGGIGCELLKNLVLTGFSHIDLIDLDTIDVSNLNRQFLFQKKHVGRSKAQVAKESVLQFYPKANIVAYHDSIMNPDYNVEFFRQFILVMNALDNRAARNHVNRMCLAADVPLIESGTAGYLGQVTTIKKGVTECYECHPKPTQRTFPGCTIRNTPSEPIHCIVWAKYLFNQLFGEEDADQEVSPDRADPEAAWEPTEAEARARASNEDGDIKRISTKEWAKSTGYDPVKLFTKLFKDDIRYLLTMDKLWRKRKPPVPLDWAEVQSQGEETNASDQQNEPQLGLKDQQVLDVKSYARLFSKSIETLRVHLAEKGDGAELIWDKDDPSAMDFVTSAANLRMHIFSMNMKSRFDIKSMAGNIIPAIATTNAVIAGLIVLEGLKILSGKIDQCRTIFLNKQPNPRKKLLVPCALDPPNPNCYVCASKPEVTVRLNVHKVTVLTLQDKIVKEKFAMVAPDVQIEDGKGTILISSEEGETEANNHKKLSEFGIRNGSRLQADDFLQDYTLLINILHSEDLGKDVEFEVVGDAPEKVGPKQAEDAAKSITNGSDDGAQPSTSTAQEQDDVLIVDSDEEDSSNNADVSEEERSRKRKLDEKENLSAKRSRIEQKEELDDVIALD
recombinant human SAE enzyme, sequence (Q9UBE0 whole entry partner): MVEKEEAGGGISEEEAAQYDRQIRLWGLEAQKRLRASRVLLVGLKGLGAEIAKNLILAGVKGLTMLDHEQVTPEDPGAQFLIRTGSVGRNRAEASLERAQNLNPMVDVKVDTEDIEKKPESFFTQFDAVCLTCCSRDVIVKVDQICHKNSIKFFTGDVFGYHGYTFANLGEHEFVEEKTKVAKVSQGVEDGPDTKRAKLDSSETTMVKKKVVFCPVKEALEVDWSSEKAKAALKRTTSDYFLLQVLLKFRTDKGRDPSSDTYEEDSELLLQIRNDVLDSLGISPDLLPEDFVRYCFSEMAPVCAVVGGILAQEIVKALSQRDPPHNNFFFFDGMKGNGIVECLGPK

Row | SMILES | Percent Inhibition [1] [%] | IC50 [2] [nM] | Percent Inhibition (Concentration 0.111 μM) | IC50 (class symbols A/B/C) [nM] | inhibition at 0.111 µM (Concentration 0.111 μM) [%]
1 | Cc1nc2c(s1)CCO[C@H]2c1cc(C(=O)c2cncnc2N[C@@H]2C[C@H](COS(N)(=O)=O)[C@@H](O)C2)sc1C (single isomer, unassigned) [I-287a, [(1R,2S,4R)-2-hydroxy-4-{[5-({5-methyl-4-[(4S)-2-methyl-6,7-dihydro-4H-pyrano[3,4-d][1,3]thiazol-4-yl]-2-thienyl}carbonyl)pyrimidin-4-yl]amino}cyclopentyl]methyl sulfamate or [(1R,2S,4R)-2-hydroxy-4-{[5-({5-methyl-4-[(4R)-2-methyl-6,7-dihydro-4H-pyrano[3,4-d][1,3]thiazol-4-yl]-2-thienyl}carbonyl)pyrimidin-4-yl]amino}cyclopentyl]methyl sulfamate] | 9 | 100 to 1000 |  |  | 
2 | NS(=O)(=O)OC[C@H]1C[C@@H](Nc2ncncc2C(=O)c2cc([C@@H]3OCCc4ccc(Br)cc43)cs2)C[C@@H]1O (single isomer, unassigned) [I-268b, [(1R,2S,4R)-4-{[5-({4-[(1R)-7-bromo-3,4-dihydro-1H-isochromen-l-yl]-2-thienyl}carbonyl)pyrimidin-4-yl]amino}-2-hydroxycyclopentyl]methyl sulfamate or [(1R,2S,4R)-4-{([5-({4-[(1S)-7-bromo-3,4-dihydro-1H-isochromen-1-yl]-2-thienyl}carbonyl)pyrimidin-4-yl]amino}-2-hydroxycyclopentyl]methyl sulfamate] |  |  | 102 | < 10 | 
3 | NS(=O)(=O)OC[C@H]1C[C@@H](Nc2ncncc2C(=O)c2cc(COc3cccc(Cl)c3Cl)cs2)C[C@@H]1O [I-180, [(1R,2S,4R)-4-{[5-({4-[(2,3-dichlorophenoxy)methyl]-2-thienyl}carbonyl)pyrimidin-4-yl]amino}-2-hydroxycyclopentyl]methyl sulfamate] |  |  |  | 10 to 100 | 84
4 | NS(=O)(=O)OC[C@H]1C[C@@H](Nc2ncncc2C(=O)c2cc(Cc3cccc(Cl)c3)c(Cl)o2)C[C@@H]1O [I-72, [(1R,2S,4R)-4-({5-[5-chloro-4-(3-chlorobenzyl)-2-furoyl]pyrimidin-4-yl}amino)-2-hydroxycyclopentyl]methyl sulfamate] |  |  |  | < 10 | 98
5 | NC(c1cccc(Cl)c1)c1cc(C(=O)c2cncnc2NC2CC(O)C(COS(N)(=O)=O)C2)sc1Cl (mixture of isomers) [I-15, [(1R,2S,4R)-4-{[5-({4-[(R)-amino(3-chlorophenyl)methyl]-5-chloro-2-thienyl}carbonyl)pyrimidin-4-yl]amino}-2-hydroxycyclopentyl]methyl sulfamate and [(1R,2S,4R)-4-{[5-({4-[(S)-amino(3-chlorophenyl)methyl]-5-chloro-2-thienyl}carbonyl)pyrimidin-4-yl]amino}-2-hydroxycyclopentyl]methyl sulfamate] |  |  | 100 | < 10 | 
6 | CN(C)Cc1cn(Cc2csc(C(=O)c3cncnc3N[C@@H]3C[C@H](COS(N)(=O)=O)[C@@H](O)C3)c2)c2ccccc12 [I-221, {(1R,2S,4R)-4-[(5-{[4-({3-[(dimethylamino)methyl]-1H-indol-1-yl}methyl)-2-thienyl]carbonyl}pyrimidin-4-yl)amino]-2-hydroxycyclopentyl}methyl sulfamate] |  |  |  | 100 to 1000 | 30
7 | NS(=O)(=O)OC[C@H]1C[C@@H](Nc2ncncc2C(=O)c2cc([C@@H]3OCCc4c(Cl)cccc43)cs2)C[C@@H]1O (single isomer, unassigned) [I-301a, [(1R,2S,4R)-4-{[5-({4-[(1R)-5-chloro-3,4-dihydro-1H-isochromen-1-yl]-2-thienyl}carbonyl)pyrimidin-4-yl]amino}-2-hydroxycyclopentyl]methyl sulfamate or [(1R,2S,4R)-4-{[5-({4-[(1S)-5-chloro-3,4-dihydro-1H-isochromen-1-yl]-2-thienyl}carbonyl)pyrimidin-4-yl]amino}-2-hydroxycyclopentyl]methyl sulfamate] | 40 | 100 to 1000 |  |  | 
8 | NS(=O)(=O)OC[C@H]1C[C@@H](Nc2ncncc2C(=O)c2cc([C@@H](O)c3cccc(Br)c3)c(Cl)s2)C[C@@H]1O (single isomer, unassigned) [I-16a, [(1R,2S,4R)-4-{[5-({4-[(S)-(3-Bromophenyl)(hydroxy)methyl-5-chloro-2-thienyl}carbonyl)pyrimidin-4-yl]amino}-2-hydroxycyclopentyl]methyl sulfamate or [(1R,2S,4R)-4-{[5-({4-[(R)-(3-Bromophenyl)(hydroxy)methyl]-5-chloro-2-thienyl}carbonyl)pyrimidin-4-yl]amino}-2-hydroxycyclopentyl]methyl sulfamate] |  |  | 99 | < 10 | 
9 | NS(=O)(=O)OC[C@H]1C[C@@H](Nc2ncncc2C(=O)c2cc([C@H]3NCCc4ccccc43)cs2)[C@H](O)[C@@H]1O (mixture of isomers) [I-295, [(1R,2R,3S,4R)-2,3-dihydroxy-4-{[5-({4-[(1S)-1,2,3,4-tetrahydroisoquinolin-1-yl]-2-thienyl}carbonyl)pyrimidin-4-yl]amino}cyclopentyl]methyl sulfamate and [(1R,2R,3S,4R)-2,3-dihydroxy-4-{[5-({4-[(1R)-1,2,3,4-tetrahydroisoquinolin-1-yl]-2-thienyl}carbonyl)pyrimidin-4-yl]amino}cyclopentyl]methyl sulfamate] | 99 | < 10 |  |  | 
10 | COCc1cc(C(=O)c2cncnc2N[C@@H]2C[C@H](COS(N)(=O)=O)[C@@H](O)C2)sc1Cl [I-218, {(1R,2S,4R)-4-[(5-{[5-Chloro-4-(methoxymethyl)-2-thienyl]carbonyl}pyrimidin-4-yl)amino]-2-hydroxycyclopentyl}methyl sulfamate] |  |  |  | 100 to 1000 | 33
11 | Cc1sc(C(=O)c2cncnc2N[C@@H]2C[C@H](COS(N)(=O)=O)[C@@H](O)C2)cc1[C@@H]1OCCc2sc(C(F)(F)F)nc21 (mixture of isomers) [I-315, [(1R,2S,4R)-2-hydroxy-4-{[5-({5-methyl-4-[(4S)-2-(trifluoromethyl)-6,7-dihydro-4H-pyrano[3,4-d][1,3]thiazol-4-yl]-2-thienyl}carbonyl)pyrimidin-4-yl]amino}cyclopentyl]methyl sulfamate and [(1R,2S,4R)-2-hydroxy-4-{[5-({5-methyl-4-[(4R)-2-(trifluoromethyl)-6,7-dihydro-4H-pyrano[3,4-d][1,3]thiazol-4-yl]-2-thienyl}carbonyl)pyrimidin-4-yl]amino}cyclopentyl]methyl sulfamate] | 97 | < 10 |  |  | 
12 | Cc1cnn(Cc2cc(C(=O)c3cncnc3N[C@@H]3C[C@H](COS(N)(=O)=O)[C@@H](O)C3)sc2C)c1 [I-78, [(1R,2S,4R)-2-hydroxy-4-{[5-({5-methyl-4-[(4-methyl-1H-pyrazol-1-yl)methyl]-2-thienyl}carbonyl)pyrimidin-4-yl]amino}cyclopentyl]methyl sulfamate] |  |  |  |  | 98
13 | NS(=O)(=O)OC[C@H]1C[C@@H](Nc2ncncc2C(=O)c2cc([C@H]3OCCc4cccc(Cl)c43)cs2)C[C@@H]1O [I-365, [(1R,2S,4R)-4-[[5-[4-[(1S)-chloroisochroman-1-yl]thiophene-2-carbonyl]pyrimidin-4-yl]amino]-2-hydroxy-cyclopentyl]methyl sulfamate and [(1R,2S,4R)-4-[[5-[4-[(1R)-8-chloroisochroman-1-yl]thiophene-2-carbonyl]pyrimidin-4-yl]amino]-2-hydroxy-cyclopentyl]methyl sulfamate] | 62 | 10 to 100 |  |  | 
